A compilation of properties of binary mixtures (doi:10.1524/zpch.2013.0326)

Test: xn = mol fraction of the nth substance listed
Conditions: 101 kPa

c1ccccc1 + CCCCCCCC[n+]1ccc2ccccc2c1.O=S(=O)([N-]S(=O)(=O)C(F)(F)F)C(F)(F)F
x1 = 1
Conditions | viscosity [mPa·s]
298.15 K | 0.6
318.15 K | 0.47
338.15 K | 0.37
348.15 K | 0.34

CCCCCCCC[n+]1ccc2ccccc2c1.O=S(=O)([N-]S(=O)(=O)C(F)(F)F)C(F)(F)F + c1ccsc1
viscosity [mPa·s]
Conditions | 298.15 K | 308.15 K | 318.15 K | 328.15 K | 338.15 K | 348.15 K
x2 = 0 | 369 | 191 | – | 67.9 | 44.8 | 31.62
x2 = 0.0964 | 300 | – | – | 57.9 | 38.71 | 27.2
x2 = 0.1907 | 215 | 118 | 70.9 | 45.7 | 33.3 | 22.4
x2 = 0.2739 | 155.2 | 88.3 | – | 36.23 | 25.31 | 18.35
x2 = 0.3572 | 112.1 | 66.1 | 42.17 | 28.66 | – | 15.04
x2 = 0.4456 | 72.5 | 44.61 | 29.44 | 20.52 | 14.97 | –
x2 = 0.542 | – | – | 19.21 | 13.96 | 10.53 | 8.22
x2 = 0.6385 | 23.26 | – | 11.79 | 8.96 | 6.98 | 5.57
x2 = 0.7244 | 12.82 | 9.45 | 7.2 | 5.63 | 4.53 | 3.73
x2 = 0.821 | – | – | 4.88 | 4.03 | 3.4 | 2.91
x2 = 0.8627 | 5.27 | 4.26 | 3.53 | 2.98 | 2.55 | 2.22
x2 = 0.9065 | 3.34 | – | – | 2.04 | 1.78 | 1.57
x2 = 0.935 | 2.38 | 2.01 | 1.73 | 1.51 | 1.34 | 1.25

CCCCCCCC[n+]1ccc2ccccc2c1.O=S(=O)([N-]S(=O)(=O)C(F)(F)F)C(F)(F)F + c1ccccc1
viscosity [mPa·s]
Conditions | 298.15 K | 308.15 K | 318.15 K | 328.15 K | 338.15 K | 348.15 K
x2 = 0 | – | 191 | – | 67.9 | 44.8 | 31.62
x2 = 0.0912 | 301 | 158.8 | 92 | 57.6 | 38.53 | 27.1
x2 = 0.1505 | 249 | 134.2 | 79.2 | – | 34.07 | 24.21
x2 = 0.295 | 150.9 | 85.5 | 52.8 | 34.86 | 24.3 | 17.61
x2 = 0.332 | 133.1 | 76.4 | – | – | 22.32 | –
x2 = 0.4679 | – | – | 26.93 | 18.76 | 13.7 | 10.41
x2 = 0.5663 | 37.49 | 24.56 | – | 12.25 | 9.21 | 7.15
x2 = 0.654 | 21.25 | 14.55 | 10.5 | 7.91 | 6.15 | –
x2 = 0.673 | – | 7.96 | 6.05 | – | – | 3.15
x2 = 0.7443 | – | 4.55 | 3.6 | 2.94 | 2.46 | 2.11
x2 = 0.8143 | 2.78 | 2.28 | 1.92 | 1.66 | – | 1.34
x2 = 0.8961 | 0.96 | 0.83 | 0.74 | 0.65 | 0.59 | –

c1ccncc1 + CCCCCCCC[n+]1ccc2ccccc2c1.O=S(=O)([N-]S(=O)(=O)C(F)(F)F)C(F)(F)F
x1 = 1
Conditions | viscosity [mPa·s]
218.15 K | 0.67
298.15 K | 0.89
308.15 K | 0.76
328.15 K | 0.59
348.15 K | 0.52

Cc1ccccc1 + CCCCCCCC[n+]1ccc2ccccc2c1.O=S(=O)([N-]S(=O)(=O)C(F)(F)F)C(F)(F)F
x1 = 1
Conditions | viscosity [mPa·s]
298.15 K | 0.56
318.15 K | 0.45
328.15 K | 0.4
338.15 K | 0.37
348.15 K | 0.33

CCCCCCCC[n+]1ccc2ccccc2c1.O=S(=O)([N-]S(=O)(=O)C(F)(F)F)C(F)(F)F + Cc1ccccc1
viscosity [mPa·s]
Conditions | 298.15 K | 308.15 K | 318.15 K | 328.15 K | 338.15 K | 348.15 K
x2 = 0 | 369 | 191 | 108.7 | 67.9 | – | 31.62
x2 = 0.0818 | – | – | 94.1 | 58.9 | 39.34 | 27.64
x2 = 0.1949 | 200 | 111.3 | – | 43.52 | 29.87 | 21.41
x2 = 0.2746 | 143.3 | – | 50.3 | 33.2 | 23.14 | 16.87
x2 = 0.3638 | 96.8 | 58.2 | 37.73 | – | 18.51 | 13.76
x2 = 0.4295 | 67.4 | – | 27.64 | – | 14.19 | 10.81
x2 = 0.4775 | – | – | 22.12 | 15.77 | – | 9
x2 = 0.4902 | – | 31.17 | 21.24 | 15.26 | 11.43 | 8.83
x2 = 0.5467 | 35.44 | 23.45 | 16.48 | – | 9.23 | 7.21
x2 = 0.6148 | 22.18 | 15.4 | – | 8.46 | 6.59 | 5.28
x2 = 0.7004 | 12.67 | 9.25 | 7.03 | – | 4.44 | 3.65
x2 = 0.7634 | 7.73 | 5.89 | 4.64 | 3.76 | 3.11 | 2.62
x2 = 0.8672 | 3.2 | 2.62 | – | 1.88 | 1.65 | 1.48

CCCCCCCC[n+]1ccc2ccccc2c1.O=S(=O)([N-]S(=O)(=O)C(F)(F)F)C(F)(F)F + c1ccncc1
viscosity [mPa·s]
Conditions | 298.15 K | 308.15 K | 328.15 K | 338.15 K | 348.15 K
x2 = 0 | 369 | 191 | – | 44.8 | 31.62
x2 = 0.0945 | 292 | – | 57 | – | –
x2 = 0.1869 | 205 | 113.6 | 44.5 | 30.56 | 21.19
x2 = 0.2762 | 141.5 | 81.4 | 34.07 | 23.96 | 17.53
x2 = 0.3675 | 89.1 | 53.9 | 24.08 | 17.44 | 13.12
x2 = 0.4584 | 56.5 | 35.87 | 17.33 | 12.94 | 10.01
x2 = 0.5383 | 42.09 | 27.64 | 14.12 | – | 8.48
x2 = 0.637 | 19.55 | 13.92 | 8.02 | 6.34 | 5.11
x2 = 0.7274 | 10.36 | 7.76 | – | 3.95 | 3.3
x2 = 0.8199 | 6.68 | – | 3.64 | – | 2.67
x2 = 0.9064 | 3.11 | 2.6 | 1.92 | 1.68 | 1.49

c1ccsc1 + CCCCCCCC[n+]1ccc2ccccc2c1.O=S(=O)([N-]S(=O)(=O)C(F)(F)F)C(F)(F)F
x1 = 1
Conditions | viscosity [mPa·s]
298.15 K | 0.62
308.15 K | 0.54
318.15 K | 0.48
328.15 K | 0.42
338.15 K | 0.38
